What was measured:
[1] = subchronic
[2] = test system: Rattus norvegicus
[3] = subchronic, duration: 90 days, oral, diet

Compound CCCc1ccn(-c2ccccc2)n1 [1H-Pyrazole, 1-phenyl-3(or 5)-propyl-] has an NOAEL [1] of 25 mg/kg-day.
For CC(=O)c1nccs1 [2-Acetylthiazole], the NOAEL [2, 3] was 50 mg/kg-day.
In the case of CCC(=O)c1nccs1 [2-Propionylthiazole], the NOAEL [2, 3] is reported as 50 mg/kg-day.
With c1csc(SSc2cccs2)c1 [2-Thienyl disulfide] the NOAEL [2, 3] was 0.29 mg/kg-day.
Work on Cc1ccc2c(c1)OC(=O)C2C (stereo unspecified) [3,6-Dimethyl-1-benzofuran-2(3H)-one] yielded an NOAEL ([2]; subchronic, duration: 90 days, oral) of 5.42 mg/kg-day.
Work on Cc1ncc2c(n1)CSC2 [5,7-Dihydro-2-methylthieno[3,4-d]pyrimidine] yielded an NOAEL ([2]; subchronic, duration: 90 days) of 6.6 mg/kg-day.
CC(=O)c1ccnc(C)n1 [Ethanone, 1-(2-methyl-4-pyrimidinyl)-] showed an NOAEL ([2]; subchronic, duration: 90 days, Sprague-Dawley) of 1 mg/kg-day.
Compound C[S+](C)CC[C@H](N)C(=O)O.[Cl-] [L-Methylmethionine sulfonium chloride] has an NOAEL ([2]; chronic, duration: 14 weeks, oral, diet, M/F, Wistar, no effects) of 250 mg/kg-day.
With COCCO [Methoxyethanol] the NOAEL ([2]; chronic) was 6 mg/kg-day.
Work on COc1cnc(C)s1 [Thiazole, 5-methoxy-2-methyl-] yielded an NOAEL ([1]; duration: 90 days) of 8.6 mg/kg-day.
With COCCOC(C)OCc1ccccc1 (stereo unspecified) [{[1-(2-Methoxyethoxy)ethoxy]methyl}benzene] the NOAEL ([2]; chronic) was 6 mg/kg-day.
